Test results: patent publication US4564612A, “Condensed, seven-membered ring compounds and their use” (Takeda Chemical Industries, Ltd., priority 1983, dated 1986)
Where a name gives a salt, the structure may show the parent alone. Read-outs that look alike come from different tables or passages of the source. Blank lines part the entries; values can stand above or below the molecule they belong to.

Tests used:
[1] = tested on: hypertensive reaction by angiotensin I; assay: Effect against hypertensive activity of angiotensin I in rats, intravenous administration; type: in vivo, rats (Sprague-Dawley); details: 300 μg/kg i.v., male rats
Method: (§1) Effect of the Compounds of the Present Invention against Hypertensive Activity of Angiotensin I.
(§2) Male rats (Sprague-Dawley) weighing 300 to 400 g which were fed under free access to drinking water and feed were used as experimental animals. The rats were anesthetized with intraperitoneal administration of pentobarbital sodium (50 mg/kg) on the day before the test day and a polyethylene tube was inserted into each of the femoral artery for measurement of blood pressure and the femoral vein for injection of angiotensin I and II. And the tubes were fixed.
On the test day, an average blood pressure in the control phase was measured by an electric hemodynamometer (MPU-0.5-290-0-III model manufactured by NEC-Sanei, Japan) and recorded by a polygraph (NEC-Sanei, Type 365 or Nippon Kohden Type RM-45, and thereafter angiotensin I and then angiotensin II were injected through the femoral vein at a dose of 300 ng/kg and 100 ng/kg, respectively, to measure the hypertensive activity. […] In calculating the percent inhibition to the hypertensive activity of angiotensin I, the percent inhibitory value was corrected based on the variation with time in the hypertensive reaction by antiotensin II.

[2] = target: T1, Angiotensin I Converting Enzyme (ACE) (Oryctolagus cuniculus, UniProt P12822); assay: Inhibition of Angiotensin I Converting Enzyme (ACE), HHL substrate, modified Cushman method; type: biochemical; details: read-out: ACE inhibitory activity (%); for inhibition at 1 µM: concentration 1 μM
T1 sequence (P12822 34-1310): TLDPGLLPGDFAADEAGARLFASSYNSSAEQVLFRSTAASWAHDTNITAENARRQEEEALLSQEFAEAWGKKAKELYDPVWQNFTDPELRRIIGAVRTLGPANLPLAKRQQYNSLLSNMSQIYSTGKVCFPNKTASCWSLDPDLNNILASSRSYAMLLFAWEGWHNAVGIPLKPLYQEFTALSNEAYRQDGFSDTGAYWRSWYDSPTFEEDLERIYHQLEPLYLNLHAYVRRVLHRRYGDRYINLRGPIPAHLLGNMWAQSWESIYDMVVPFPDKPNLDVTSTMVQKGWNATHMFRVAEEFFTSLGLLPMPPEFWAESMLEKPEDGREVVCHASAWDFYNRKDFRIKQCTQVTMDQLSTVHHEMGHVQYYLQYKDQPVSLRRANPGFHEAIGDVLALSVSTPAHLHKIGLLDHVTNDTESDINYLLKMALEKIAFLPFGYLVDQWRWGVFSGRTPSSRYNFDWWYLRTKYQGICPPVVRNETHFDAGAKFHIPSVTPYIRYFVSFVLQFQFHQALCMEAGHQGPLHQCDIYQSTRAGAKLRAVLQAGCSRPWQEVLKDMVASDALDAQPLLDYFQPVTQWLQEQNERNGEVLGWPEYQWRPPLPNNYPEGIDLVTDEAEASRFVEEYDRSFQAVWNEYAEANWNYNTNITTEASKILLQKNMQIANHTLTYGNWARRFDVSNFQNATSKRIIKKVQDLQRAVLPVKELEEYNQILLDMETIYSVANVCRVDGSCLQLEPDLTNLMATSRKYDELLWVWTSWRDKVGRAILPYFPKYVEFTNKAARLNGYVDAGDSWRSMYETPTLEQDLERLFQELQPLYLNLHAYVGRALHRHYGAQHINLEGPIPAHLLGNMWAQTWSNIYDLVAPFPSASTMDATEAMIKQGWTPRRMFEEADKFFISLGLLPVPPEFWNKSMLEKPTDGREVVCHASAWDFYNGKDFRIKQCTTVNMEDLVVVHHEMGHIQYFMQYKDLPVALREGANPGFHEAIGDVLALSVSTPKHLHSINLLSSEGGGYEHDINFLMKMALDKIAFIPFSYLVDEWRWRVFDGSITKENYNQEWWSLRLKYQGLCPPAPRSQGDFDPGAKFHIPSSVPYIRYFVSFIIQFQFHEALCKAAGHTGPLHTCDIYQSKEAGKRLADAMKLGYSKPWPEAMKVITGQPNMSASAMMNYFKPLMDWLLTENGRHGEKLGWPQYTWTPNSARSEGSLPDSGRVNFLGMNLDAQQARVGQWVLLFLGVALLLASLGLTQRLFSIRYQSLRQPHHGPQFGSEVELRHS
Method: Experiment on Inhibition of Angiotensin I Converting Enzyme (ACE) by the Compounds of this Invention. […] That is, using hippuryl-L-histidyl-L-leucine (HHL) as the substrate, the ACE inhibitory activity was determined in terms of percent inhibition on the amount of hippuric acid produced by ACE when the compound of the present invention was added. […] In this experiment, a borate-HCl buffer solution containing dimethylsulfoxide at a concentration equal to that of the test solution was used as a control. After warming the solution at 37° C. for 1 hour, 150 μl of 1N hydrochloric acid was added to the solution to terminate the reaction. After 0.8 ml of ethyl acetate was added the solution was centrifuged at 11500 rpm for 2 minutes. A 0.5 ml aliquot was separated from the ethyl acetate layer and dried at a temperature below 40° C. under nitrogen gas streams. The residue was mixed thoroughly with 4.5 ml of distilled water, and the mixture was subjected to colorimetry at a wavelength of 228 nm.

[3] = tested on: hypertensive reaction by angiotensin I; assay: Effect against hypertensive activity of angiotensin I in rats, oral administration; type: in vivo, rats (Sprague-Dawley); details: male rats
Method: as §1
as §2, with “250” for “300”, “350” for “400”
On the test day, an average blood pressure in the control phase was measured by an electric hemodynamometer (MPU-0.5-290-0-III model manufactured by NEC-Sanei, Japan) and recorded by a polygraph (NEC-Sanei, Type 365 or Nippon Kohden Type RM-45), and thereafter angiotensin I and then angiotensin II were injected through the femoral vein at a dose of 300 ng/kg and 100 ng/kg, respectively, to measure the hypertensive activity. Then, 3 and 10 mg/kg of the compound of the present invention were administered orally as an aqueous solution or an aqueous gum arabic suspension, and 20, 60 and 120 minutes after the administration, angiotensin I and II were injected repeatedly to trace hypertensive reactions. In calculating the percent inhibition to the hypertensive activity of angiotensin I, the percent inhibitory value was corrected based on the variation with time in the hypertensive reaction by angiotensin II.

[4] = 10 mg/kg orally, after 120 min.

Structure (SMILES): CCOC(=O)[C@H](CCCCCCN)N[C@H]1CSc2ccccc2N(CC(=O)O)C1=O [C2 H5]
Inhibition against hypertensive reaction by angiotensin I (%) ([1]; after 5 min): 97% | Inhibition against hypertensive reaction by angiotensin I (%) ([1]; after 10 min): 97% | Inhibition against hypertensive reaction by angiotensin I (%) ([1]; after 30 min): 100% | Inhibition against hypertensive reaction by angiotensin I (%) ([1]; after 60 min): 96% | Inhibition against hypertensive reaction by angiotensin I (%) ([1]; after 90 min): 87% | Inhibition against hypertensive reaction by angiotensin I (%) ([1]; after 120 min): 73%

Structure (SMILES): O=C(O)CN1C(=O)[C@@H](N[C@H](CCc2ccccc2)C(=O)O)CSc2ccccc21 [Example 12, 3(R)-[1(R)-carboxy-3-phenylpropyl]amino-4-2,3,4,5-tetrahydro-1,5-benzothiazepine-5-acetic acid disodium salt]
inhibition at 1 µM [2]: 50% | inhibition at 10 µM ([2]; concentration 10 μM): 86%

Structure (SMILES): O=C(O)CN1C(=O)[C@@H](N[C@@H](CCc2ccccc2)C(=O)O)CSc2ccccc21 [Example 13, 3(R)-[1(S)-carboxy-3-phenylpropyl]amino-4-oxo-2,3,4,5-tetrahydro-1,5-benzothiazepine-5-acetic acid monosodium salt]
inhibition at 0.01 µM [2]: 46% | inhibition at 0.1 µM [2]: 91%

Structure (SMILES): NCCCCCC[C@H](N[C@H]1CSc2ccccc2N(CC(=O)O)C1=O)C(=O)O [Example 73, 3(R)-[7-amino-1(S)-carboxyheptyl]amino-4-oxo-2,3,4,5-tetrahydro-1,5-benzothiazepine-5-acetic acid]
inhibition at 0.1 µM ([2]; concentration 0.1 μM): 96% | inhibition at 1 µM [2]: 100%

Structure (SMILES): NCCCCCC[C@H](N[C@H]1CSc2ccccc2N(CC(=O)O)C1=O)C(=O)O [H]
Inhibition against hypertensive reaction by angiotensin I (%) ([1]; after 5 min): 100% | Inhibition against hypertensive reaction by angiotensin I (%) ([1]; after 10 min): 97% | Inhibition against hypertensive reaction by angiotensin I (%) ([1]; after 30 min): 97% | Inhibition against hypertensive reaction by angiotensin I (%) ([1]; after 60 min): 91% | Inhibition against hypertensive reaction by angiotensin I (%) ([1]; after 90 min): 78% | Inhibition against hypertensive reaction by angiotensin I (%) ([1]; after 120 min): 48%

The next lines start with results.

inhibition at 0.1 µM ([2]; concentration 0.1 μM): 40% | inhibition at 1 µM [2]: 84%
Structure (SMILES): CCOC(=O)[C@@H](CCc1ccccc1)N[C@H]1CSc2ccccc2N(CC(=O)O)C1=O [Example 5, 3(R)-[1(R)-ethoxycarbonyl-3-phenylpropyl]amino-4-oxo-2,3,4,5-tetrahydro-1,5-benzothiazepine-5-acetic acid hydrochloride]

inhibition at 0.1 µM ([2]; concentration 0.1 μM): 48% | inhibition at 1 µM [2]: 85%
Structure (SMILES): CCOC(=O)C(CCc1ccccc1)N[C@H]1CSc2ccccc2N(CC(=O)O)C1=O (some centres unmarked) [Example 6]

inhibition at 0.1 µM ([2]; concentration 0.1 μM): 53% | inhibition at 1 µM [2]: 86%
Structure (SMILES): CCOC(=O)[C@H](CCc1ccccc1)N[C@H]1CSc2ccccc2N(CC(=O)O)C1=O.Cl [Example 7, 3(R)-[1(S)-ethoxycarbonyl-3-phenylpropyl]amino-4-oxo-2,3,4,5-tetrahydro-1,5-benzothiazepine-5-acetic acid hydrochloride]
Inhibition against hypertensive reaction by angiotensin I (%) ([3]; 3 mg/kg orally, after 20 min.): 85% | Inhibition against hypertensive reaction by angiotensin I (%) ([3]; 3 mg/kg orally, after 60 min.): 51% | Inhibition against hypertensive reaction by angiotensin I (%) ([3]; 3 mg/kg orally, after 120 min.): 27% | Inhibition against hypertensive reaction by angiotensin I (%) ([3]; 10 mg/kg orally, after 20 min.): 85% | Inhibition against hypertensive reaction by angiotensin I (%) ([3]; 10 mg/kg orally, after 60 min.): 68% | Inhibition against hypertensive reaction by angiotensin I (%) [3, 4]: 51%

inhibition at 0.1 µM ([2]; concentration 0.1 μM): 83% | inhibition at 1 µM [2]: 95%
Structure (SMILES): CCOC(=O)[C@H](CCC1CCCCC1)N[C@H]1CSc2ccccc2N(CC(=O)O)C1=O.Cl [Example 9, 3(R)-[1(S)-ethoxycarbonyl-3-cyclohexylpropyl]amino-4-oxo-2,3,4,5-tetrahydro-1,5-benzothiazepine-5-acetic acid hydrochloride]
Inhibition against hypertensive reaction by angiotensin I (%) ([3]; 3 mg/kg orally, after 20 min.): 66% | Inhibition against hypertensive reaction by angiotensin I (%) ([3]; 3 mg/kg orally, after 60 min.): 36% | Inhibition against hypertensive reaction by angiotensin I (%) ([3]; 3 mg/kg orally, after 120 min.): 12% | Inhibition against hypertensive reaction by angiotensin I (%) ([3]; 10 mg/kg orally, after 20 min.): 92% | Inhibition against hypertensive reaction by angiotensin I (%) ([3]; 10 mg/kg orally, after 60 min.): 72% | Inhibition against hypertensive reaction by angiotensin I (%) [3, 4]: 68%

inhibition at 0.01 µM ([2]; concentration 0.01 μM): 77% | inhibition at 0.1 µM ([2]; concentration 0.1 μM): 96%
Structure (SMILES): O=C(O)CN1C(=O)[C@@H](N[C@@H](CCC2CCCCC2)C(=O)O)CSc2ccccc21 [Example 50, 3(R)-[1(S)-carboxy-3-cyclohexylpropyl]amino-4-oxo-2,3,4,5-tetrahydro-1,5-benzothiazepine-5-acetic acid]

inhibition at 0.1 µM ([2]; concentration 0.1 μM): 82% | inhibition at 1 µM [2]: 98%
Structure (SMILES): NCCCC[C@H](N[C@H]1CSc2ccccc2N(CC(=O)O)C1=O)C(=O)O [Example 60, 3(R)-[5-amino-1(S)-carboxypentyl]amino-4-oxo-2,3,4,5-tetrahydro-1,5-benzothiazepine-5-acetic acid]

inhibition at 0.1 µM ([2]; concentration 0.1 μM): 93% | inhibition at 1 µM [2]: 100%
Structure (SMILES): O=C(O)CN1C(=O)[C@@H](N[C@@H](CCCCNC2CCCCC2)C(=O)O)CSc2ccccc21 [Example 69, 3(R)-[1(S)-carboxy-5-cyclohexylaminopentyl]amino-4-oxo-2,3,4,5-tetrahydro-1,5-benzothiazepine-5-acetic acid]
